The source of these data is PubChem BioAssay AID330 (DTP/NCI, 2004).

SMILES strings stand for the structures. Values joined by “and” are separate entries in the source; they are usually repeats but may differ in a detail not shown here. Equal values may be shown once. Inconclusive results and toxic doses are left out.

In the assay the test system is P388 leukemia ip, CD2F1 mice, survival T/C. As to the kind of experiment: NCI In Vivo Anticancer Drug Screen. Data for tumor model P388 Leukemia (intraperitoneal) in CD2F1 (CDF1) mice. Conditions: endpoint: median survival time, higher = longer survival. Summed up: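 Mice carrying the transplanted tumor received test compound or vehicle. Survival was recorded in each group, and the value is the treated-group measurement divided by that of the vehicle-treated control group.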

Setting [1] is: dose: 50.0 mg/kg/injection, schedule: Q01DX009 (ip), vehicle: Klucel (hydroxypropylcellulose) (HPC).
The mark [2] stands for this setting: dose: 100.0 mg/kg/injection, schedule: Q01DX009 (ip), vehicle: Klucel (hydroxypropylcellulose) (HPC).
Setting [3] is: dose: 200.0 mg/kg/injection, schedule: Q01DX009 (ip), vehicle: Klucel (hydroxypropylcellulose) (HPC).
Where [4] appears, read: dose: 50.0 mg/kg/injection, schedule: Q01DX009 (ip), vehicle: saline with Tween-80.
Where [5] appears, read: dose: 100.0 mg/kg/injection, schedule: Q01DX009 (ip), vehicle: saline with Tween-80.
Setting [6] is: dose: 12.5 mg/kg/injection, schedule: Q01DX009 (ip), vehicle: saline.
The mark [7] stands for this setting: dose: 25.0 mg/kg/injection, schedule: Q01DX009 (ip), vehicle: saline.
[8] abbreviates: dose: 50.0 mg/kg/injection, schedule: Q01DX009 (ip), vehicle: saline.
Setting [9] is: dose: 200.0 mg/kg/injection, schedule: Q01DX009 (ip), vehicle: saline with Tween-80.
The mark [10] stands for this setting: dose: 25.0 mg/kg/injection, schedule: Q01DX005 (ip), vehicle: Klucel (hydroxypropylcellulose) (HPC).
Setting [11] is: dose: 50.0 mg/kg/injection, schedule: Q01DX005 (ip), vehicle: Klucel (hydroxypropylcellulose) (HPC).
Setting [12] is: dose: 100.0 mg/kg/injection, schedule: Q01DX005 (ip), vehicle: Klucel (hydroxypropylcellulose) (HPC).
Where [13] appears, read: dose: 200.0 mg/kg/injection, schedule: Q01DX005 (ip), vehicle: Klucel (hydroxypropylcellulose) (HPC).

On to `Cc1cc(-c2ccccc2)nc2nc3ccccc3n12`, for which the T/C is 105 % of control (dose: 60.0 mg/kg/injection, schedule: Q01DX005 (ip), vehicle: saline with Tween-80); 103 % of control (dose: 120.0 mg/kg/injection, schedule: Q01DX005 (ip), vehicle: saline with Tween-80); 103 % of control (dose: 240.0 mg/kg/injection, schedule: Q01DX005 (ip), vehicle: saline with Tween-80).

Regarding `O=C(O)c1[nH]c(=O)[nH]c(=O)c1F`, the T/C by setting is: (dose: 2.5 mg/kg/injection, schedule: Q01DX010 (ip), vehicle: saline) 110 % of control; (dose: 5.0 mg/kg/injection, schedule: Q01DX010 (ip), vehicle: saline) 160 % of control; (dose: 16.0 mg/kg/injection, schedule: Q01DX009 (ip), vehicle: saline) 100 % of control.

As to `COC(=O)C(Cc1c[nH]c2ccccc12)NC(=O)C(NC(=O)OC(C)(C)C)C(C)C` (stereo not drawn), the T/C under setting [1] was 101 % of control; the T/C under setting [2] was 99 % of control; the T/C under setting [3] is 97 % of control; the T/C (dose: 400.0 mg/kg/injection, schedule: Q01DX009 (ip), vehicle: Klucel (hydroxypropylcellulose) (HPC)) is 90 % of control.

Regarding `COC1/C=C/OC2(C)Oc3c(C)c(O)c4c(O)c(c(/C=N/N5CC(C)(C)N(Cc6ccccc6)CC5(C)C)c(O)c4c3C2=O)NC(=O)C(C)=C/C=C/C(C)C(O)C(C)C(O)C(C)C(OC(C)=O)C1C` (stereo not drawn), the T/C was 107 % of control under setting [4] and 118 % of control under setting [5].

On to `CC(=O)Nc1ccc(S(=O)(=O)NC(C)=O)cc1`, for which the T/C under setting [6] was 100 % of control; the T/C under setting [7] was 98 % of control; the T/C under setting [8] is 108 % of control; the T/C (dose: 100.0 mg/kg/injection, schedule: Q01DX009 (ip), vehicle: saline) was 100 % of control.

On to `O=[N+]([O-])c1cc(S(=O)(=O)NCc2ccco2)ccc1N/N=C/c1ccccn1`, for which the T/C under setting [9] was 86 % of control.

`CCN(CC)CCOC(=O)c1ccc(N=C/C=C/C(C#N)=C/NOC)cc1`: the T/C was 113 % of control under setting [4], 101 % of control under setting [5] and 103 % of control under setting [9].

Consider `CC1(C)Nc2cc3c(cc2-n2cccc21)oc1ccccc13`, for which the T/C runs as follows: (dose: 12.5 mg/kg/injection, schedule: Q01DX005 (ip), vehicle: Klucel (hydroxypropylcellulose) (HPC)) 111 % of control; under setting [10], 99 % of control; (dose: 50.0 mg/kg/injection, schedule: Q01DX005 (ip), vehicle: DMSO) 100 % of control; under setting [11], 105 % of control; (dose: 100.0 mg/kg/injection, schedule: Q01DX005 (ip), vehicle: DMSO) 95 % of control; under setting [12], 101 % of control. The T/C reads like this: (dose: 200.0 mg/kg/injection, schedule: Q01DX005 (ip), vehicle: DMSO) 96 % of control; under setting [13], 111 % of control; (dose: 400.0 mg/kg/injection, schedule: Q01DX005 (ip), vehicle: DMSO) 100 % of control; (dose: 800.0 mg/kg/injection, schedule: Q01DX005 (ip), vehicle: DMSO) 98 % of control.

As for `CC1(C)CC(C)(OC(=O)c2ccc(F)cc2)N=N1` (stereo not drawn), the T/C by setting is: (dose: 12.5 mg/kg/injection, schedule: Q01DX009 (ip), vehicle: other) 103 % of control; (dose: 25.0 mg/kg/injection, schedule: Q01DX009 (ip), vehicle: other) 113 % of control; (dose: 50.0 mg/kg/injection, schedule: Q01DX009 (ip), vehicle: other) 108 % of control; (dose: 100.0 mg/kg/injection, schedule: Q01DX009 (ip), vehicle: other) 113 % of control; (dose: 200.0 mg/kg/injection, schedule: Q01DX009 (ip), vehicle: other) 118 % of control.

For the compound `CC12C=CC(C)(C3C(=O)NC(=O)C31)C1C3C(=O)NC(=O)C3C12` (stereo not drawn), the T/C reads like this: (dose: 25.0 mg/kg/injection, schedule: Q01DX009 (ip), vehicle: Klucel (hydroxypropylcellulose) (HPC)) 106 % of control; under setting [1], 109 % of control; under setting [2], 106 % of control; under setting [3], 109 % of control.

For `CC(C)(C)c1cc2c(c(C(C)(C)C)c1)OP(F)(c1ccccc1)(c1ccccc1)N2`, the T/C was 89 % of control under setting [4], 95 % of control under setting [5] and 98 % of control under setting [9].

In the case of `CCCCCC1c2cc(O)ccc2OC1N1CCOCC1` (stereo not drawn), the T/C is, setting by setting: (dose: 12.5 mg/kg/injection, schedule: Q01DX009 (ip), vehicle: saline with Tween-80) 105 % of control; (dose: 25.0 mg/kg/injection, schedule: Q01DX009 (ip), vehicle: saline with Tween-80) 101 % of control; under setting [4], 113 % of control and 120 % of control; under setting [5], 119 % of control and 124 % of control.

Regarding `O=C(O)C(O)C(O)C(=O)O.O=C(O)C(O)C(O)C(=O)O.[O]=[V].[O]=[V]` (stereo not drawn), the T/C is, setting by setting: under setting [6], 110 % of control; (dose: 15.0 mg/kg/injection, schedule: Q01DX009 (ip), vehicle: saline) 102 % of control; under setting [7], 110 % of control; (dose: 25.0 mg/kg/injection, schedule: Q04DX003 (ip), vehicle: saline sonified) 100 % of control; (dose: 30.0 mg/kg/injection, schedule: Q01DX009 (ip), vehicle: saline) 106 % of control; (dose: 50.0 mg/kg/injection, schedule: Q04DX003 (ip), vehicle: saline sonified) 104 % of control.

As to `COc1ccc(/C=C2/C(=O)N(c3ccccc3)N=C2C)cc1`, the T/C is 107 % of control (dose: 60.0 mg/kg/injection, schedule: Q01DX005 (ip), vehicle: Klucel (hydroxypropylcellulose) (HPC)); 104 % of control (dose: 120.0 mg/kg/injection, schedule: Q01DX005 (ip), vehicle: Klucel (hydroxypropylcellulose) (HPC)); 107 % of control (dose: 240.0 mg/kg/injection, schedule: Q01DX005 (ip), vehicle: Klucel (hydroxypropylcellulose) (HPC)).

As to `COC(=O)/C=C(\C=C/C(=O)O)C(=O)O`, the T/C under setting [11] is 104 % of control, the T/C under setting [12] was 100 % of control and the T/C under setting [13] is 95 % of control.

Regarding `CC1(C)C2CC=C(C[P+](c3ccccc3)(c3ccccc3)c3ccccc3)C1C2` (stereo not drawn), the T/C is 119 % of control (dose: 1.25 mg/kg/injection, schedule: Q01DX009 (ip), vehicle: saline with Tween-80) and 119 % of control (dose: 2.5 mg/kg/injection, schedule: Q01DX009 (ip), vehicle: saline with Tween-80).

Take `C=CCn1cc(F)c(=O)[nH]c1=O`: the T/C was 97 % of control (dose: 30.0 mg/kg/injection, schedule: Q04DX002 (ip), vehicle: saline); 100 % of control (dose: 60.0 mg/kg/injection, schedule: Q04DX002 (ip), vehicle: saline); 104 % of control (dose: 120.0 mg/kg/injection, schedule: Q04DX002 (ip), vehicle: saline); 100 % of control (dose: 150.0 mg/kg/injection, schedule: Q04DX002 (ip), vehicle: saline); 99 % of control (dose: 240.0 mg/kg/injection, schedule: Q04DX002 (ip), vehicle: saline); 98 % of control (dose: 300.0 mg/kg/injection, schedule: Q04DX002 (ip), vehicle: saline). For the same compound, the T/C (dose: 600.0 mg/kg/injection, schedule: Q04DX002 (ip), vehicle: saline) was 106 % of control.

Regarding `O=C1CN(CN2CCOCC2)C(=O)CN1CN1CCOCC1`, the T/C runs as follows: under setting [7], 115 % of control; under setting [8], 114 % of control.

`Cc1cc(=O)[nH]c2cc(O)ccc12`: the T/C runs as follows: under setting [10], 100 % of control; under setting [11], 93 % of control; under setting [12], 98 % of control.

Take `N#CC(C=C(c1ccccc1)c1ccccc1)c1ccccc1` (stereo not drawn): the T/C by setting is: (dose: 100.0 mg/kg/injection, schedule: Q04DX003 (ip), vehicle: saline) 98 % of control; (dose: 200.0 mg/kg/injection, schedule: Q04DX003 (ip), vehicle: saline) 98 % of control; (dose: 400.0 mg/kg/injection, schedule: Q04DX003 (ip), vehicle: saline) 96 % of control.

Regarding `O=c1c2[nH]c3ccccc3sc=2c(=O)n1-c1ccc(Cl)c(Cl)c1Cl`, the T/C reads like this: (dose: 100.0 mg/kg/injection, schedule: Q04DX002 (ip), vehicle: saline with Tween-80) 100 % of control; (dose: 200.0 mg/kg/injection, schedule: Q04DX002 (ip), vehicle: saline with Tween-80) 97 % of control; (dose: 400.0 mg/kg/injection, schedule: Q04DX002 (ip), vehicle: saline with Tween-80) 100 % of control.
